Results from ChEMBL document CHEMBL4033742, “Novel 3-fluoro-6-methoxyquinoline derivatives as inhibitors of bacterial DNA gyrase and topoisomerase IV” (Bioorg Med Chem Lett, 2017).
Values after ≈ are worked out from the molar mass of the structure shown.

Assays:
Staphylococcus aureus [1] = test: Antibacterial activity against Staphylococcus aureus containing DNA gyrase D83N mutations; format: functional
[2] = Inhibition of Staphylococcus aureus DNA topoisomerase 4
[3] = Inhibition of Staphylococcus aureus DNA gyrase
Staphylococcus aureus [4] = test: Antibacterial activity against fluoroquinolone-sensitive Staphylococcus aureus 1146; format: functional
Staphylococcus aureus [5] = test: Antibacterial activity against fluoroquinolone-resistant Staphylococcus aureus 1095; format: functional
Staphylococcus aureus [6] = test: Antibacterial activity against Staphylococcus aureus containing DNA gyrase M121K mutations; format: functional
[7] = Stability assessed as increase in metabolism rate under in-vitro conditions; format: physicochemical
[8] = biological target: Voltage-gated inwardly rectifying potassium channel KCNH2 (Homo sapiens, UniProt Q12809); test: Inhibition of human ERG
Staphylococcus aureus [9] = test: Antibacterial activity against Staphylococcus aureus; format: functional
Streptococcus pyogenes = test: Antibacterial activity against Streptococcus pyogenes; format: functional
[10] = Fraction unbound in mouse plasma; format: ADME, cell-free
[11] = Fraction unbound in rat plasma; format: ADME, cell-free
[12] = Fraction unbound in human plasma; format: ADME, cell-free
[13] = Clearance in mouse at 10 mg/kg, iv; format: ADME, organism-based; conditions: in vivo
[14] = Volume of distribution at steady state in mouse at 10 mg/kg, iv; format: ADME, organism-based; conditions: in vivo, read-out: Vdss
[15] = Half life in mouse at 10 mg/kg, iv; format: ADME, organism-based; conditions: in vivo
[16] = Clearance in rat at 2 mg/kg, iv; format: ADME, organism-based; conditions: in vivo
[17] = Volume of distribution at steady state in rat at 2 mg/kg, iv; format: ADME, organism-based; conditions: in vivo, read-out: Vdss
[18] = Half life in rat at 2 mg/kg, iv; format: ADME, organism-based; conditions: in vivo
Staphylococcus aureus [19] = test: Antibacterial activity against fluoroquinolone-resistant Staphylococcus aureus infected in mouse neutropenic thigh model assessed as static dose required for bacterial stasis; format: functional
[20] = Cmax in human; format: ADME
[21] = Ratio of fAUC in fluoroquinolone-resistant Staphylococcus aureus infected mouse neutropenic thigh model to MIC for fluoroquinolone-resistant Staphylococcus aureus
Cavia porcellus [22] = test: fCmax in anesthetized guinea pig model; format: ADME
Cavia porcellus [23] = test: Cardiotoxicity in anesthetized guinea pig model assessed as prolongation of monophasic action potential duration at fCmax level; format: toxicity
Cavia porcellus [24] = test: Cardiotoxicity in anesthetized guinea pig model assessed as increase in cardiac alternans at fCmax level; format: toxicity

Sequence of Voltage-gated inwardly rectifying potassium channel KCNH2 (Q12809 whole entry): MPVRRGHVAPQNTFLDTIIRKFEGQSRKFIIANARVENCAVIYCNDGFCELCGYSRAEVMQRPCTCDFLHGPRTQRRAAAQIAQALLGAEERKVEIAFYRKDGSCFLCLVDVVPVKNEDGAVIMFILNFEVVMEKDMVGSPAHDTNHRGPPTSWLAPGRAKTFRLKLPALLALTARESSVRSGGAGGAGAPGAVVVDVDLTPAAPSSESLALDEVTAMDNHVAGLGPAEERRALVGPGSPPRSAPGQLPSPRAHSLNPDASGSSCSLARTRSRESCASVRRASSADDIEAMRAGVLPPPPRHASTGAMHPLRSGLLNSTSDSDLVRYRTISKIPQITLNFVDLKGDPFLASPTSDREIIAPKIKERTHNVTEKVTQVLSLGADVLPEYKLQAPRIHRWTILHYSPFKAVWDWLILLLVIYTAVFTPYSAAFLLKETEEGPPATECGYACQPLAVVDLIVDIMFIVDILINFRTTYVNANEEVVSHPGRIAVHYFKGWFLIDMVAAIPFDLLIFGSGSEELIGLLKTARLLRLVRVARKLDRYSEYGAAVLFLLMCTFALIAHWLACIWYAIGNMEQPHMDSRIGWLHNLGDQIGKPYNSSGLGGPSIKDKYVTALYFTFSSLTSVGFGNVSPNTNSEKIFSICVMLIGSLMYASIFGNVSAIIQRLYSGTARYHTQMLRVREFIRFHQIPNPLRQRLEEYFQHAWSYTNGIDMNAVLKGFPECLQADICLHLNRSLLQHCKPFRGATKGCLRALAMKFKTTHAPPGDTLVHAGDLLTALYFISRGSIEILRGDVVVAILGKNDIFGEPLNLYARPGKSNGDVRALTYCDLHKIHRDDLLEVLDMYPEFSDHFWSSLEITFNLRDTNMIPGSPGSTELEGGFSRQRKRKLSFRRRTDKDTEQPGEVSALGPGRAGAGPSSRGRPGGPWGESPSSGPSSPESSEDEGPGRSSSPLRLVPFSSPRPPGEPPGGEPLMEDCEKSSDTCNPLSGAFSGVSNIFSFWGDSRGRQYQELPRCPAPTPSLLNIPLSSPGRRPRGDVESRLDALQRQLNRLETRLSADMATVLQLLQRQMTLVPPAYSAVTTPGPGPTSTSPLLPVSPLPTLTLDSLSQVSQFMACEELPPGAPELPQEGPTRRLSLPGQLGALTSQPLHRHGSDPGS

COc1ccc2ncc(F)c([C@@H](O)CC[C@@H]3CCN(C4CC(c5ccccn5)C4)C[C@@H]3C(=O)O)c2c1 (stereo partly drawn)
MIC (Staphylococcus aureus [1]): > 64 µg/mL
IC50 [2]: 50 µM
IC50 [3]: 3.13 µM
MIC (Staphylococcus aureus [4]): 1 µg/mL (≈ 2.03 µM)
MIC (Staphylococcus aureus [5]): 16 µg/mL (≈ 32.4 µM)

COc1ccc2ncc(F)c([C@@H](O)CC[C@@H]3CCN(C4CC(c5cc(F)cc(F)c5F)C4)C[C@@H]3C(=O)O)c2c1 (stereo partly drawn)
MIC (Staphylococcus aureus [6]): 2 µg/mL (≈ 3.66 µM)
MIC (Staphylococcus aureus [1]): 1 µg/mL (≈ 1.83 µM)
IC50 [2]: 4.7 µM
IC50 [3]: 1.56 µM
MIC (Staphylococcus aureus [4]): ≤ 0.0625 µg/mL
MIC (Staphylococcus aureus [5]): ≤ 0.0625 µg/mL
Stability [7]: Unstable

COc1ccc2ncc(F)c([C@@H](O)CC[C@@H]3CCN(CCSc4cccs4)C[C@@H]3C(=O)O)c2c1
IC50 [2]: 30.4 µM
IC50 [3]: 1.56 µM

COc1ccc2ncc(F)c([C@@H](O)CC[C@@H]3CCN(C4CC(c5cccc(F)c5F)C4)C[C@@H]3C(=O)O)c2c1 (stereo partly drawn)
MIC (Staphylococcus aureus [6]): 4 µg/mL (≈ 7.57 µM)
IC50 [8]: 25 µM
MIC (Staphylococcus aureus [1]): 8 µg/mL (≈ 15.1 µM)
IC50 [2]: 7.5 µM
IC50 [3]: 0.78 µM
MIC (Staphylococcus aureus [4]): ≤ 0.0625 µg/mL
MIC (Staphylococcus aureus [5]): ≤ 0.0625 µg/mL

COc1ccc2ncc(F)c([C@@H](O)CC[C@@H]3CCN(C4CC(c5cc(F)ccc5F)C4)C[C@@H]3C(=O)O)c2n1 (stereo partly drawn)
MIC (Staphylococcus aureus [6]): 2.3 µg/mL (≈ 4.34 µM)
IC50 [8]: 45 µM
MIC (Staphylococcus aureus [1]): 2.5 µg/mL (≈ 4.72 µM)
IC50 [2]: 5.09 µM
IC50 [3]: 1.43 µM
MIC (Staphylococcus aureus [4]): ≤ 0.0625 µg/mL
MIC (Staphylococcus aureus [5]): 0.088 µg/mL (≈ 0.166 µM)
MIC90 (Staphylococcus aureus [9]): 0.125 to 0.25 µg/mL (≈ 0.236 to 0.472 µM)
MIC90 (Streptococcus pyogenes): 0.5 to 1 µg/mL (≈ 0.944 to 1.89 µM)
fraction unbound [10]: 0.131 to 0.242
fraction unbound [11]: 0.121 to 0.189
fraction unbound [12]: 0.036 to 0.037
clearance [13]: 34 mL/min/kg
Vd [14]: 0.825 L/kg
half-life [15]: 16.8 min
clearance [16]: 32.7 mL/min/kg
Vd [17]: 1.89 L/kg
half-life [18]: 40.2 min
Activity (Staphylococcus aureus [19]): 80.7 mg/kg/day

O=c1ccc2ncc(F)c3c2n1C[C@@]3(O)CN1CCC(NCc2cc3c(cn2)OCCO3)CC1
MIC (Staphylococcus aureus [6]): 8 µg/mL (≈ 17.1 µM)
IC50 [8]: > 300 µM
MIC (Staphylococcus aureus [1]): 4 µg/mL (≈ 8.56 µM)
IC50 [2]: 4.96 µM
IC50 [3]: 0.448 µM
MIC (Staphylococcus aureus [4]): 0.125 µg/mL (≈ 0.267 µM)
MIC (Staphylococcus aureus [5]): 0.31 µg/mL (≈ 0.663 µM)
MIC90 (Staphylococcus aureus [9]): 0.5 µg/mL (≈ 1.07 µM)
MIC90 (Streptococcus pyogenes): 0.125 µg/mL (≈ 0.267 µM)

O=c1ccc2ncc(=O)n3c2n1C[C@H]3CN1CCC(NCc2cc3c(cn2)OCCC3)CC1 [GEPOTIDACIN]
Cmax [20]: 7000 to 13000 ng/mL
IC50 [8]: 1310 µM
MIC (Staphylococcus aureus [1]): 8 to 32 µg/mL (≈ 17.8 to 71.3 µM)
Ratio [21]: 13.4

COc1ccc2ncc(F)c([C@@H](O)CC[C@@H]3CCN(C4CC(c5ncccc5F)C4)C[C@@H]3C(=O)O)c2c1 (stereo partly drawn)
MIC (Staphylococcus aureus [6]): 32 µg/mL (≈ 62.6 µM)
IC50 [8]: 10.7 µM
MIC (Staphylococcus aureus [1]): 32 µg/mL (≈ 62.6 µM)
IC50 [2]: 30 µM
IC50 [3]: 6.25 µM
MIC (Staphylococcus aureus [4]): 0.125 µg/mL (≈ 0.244 µM)
MIC (Staphylococcus aureus [5]): 0.5 µg/mL (≈ 0.977 µM)
MIC90 (Staphylococcus aureus [9]): 1 µg/mL (≈ 1.95 µM)
MIC90 (Streptococcus pyogenes): 2 µg/mL (≈ 3.91 µM)

COc1ccc2ncc(F)c([C@@H](O)CC[C@@H]3CCN(C4CC(c5cc(F)ccc5F)C4)C[C@@H]3C(=O)O)c2c1 (stereo partly drawn)
MIC (Staphylococcus aureus [6]): 2 µg/mL (≈ 3.78 µM)
IC50 [8]: 85.9 µM
MIC (Staphylococcus aureus [1]): 3.4 µg/mL (≈ 6.43 µM)
IC50 [2]: 5.47 µM
IC50 [3]: 0.977 µM
MIC (Staphylococcus aureus [4]): 0.088 µg/mL (≈ 0.166 µM)
MIC (Staphylococcus aureus [5]): 0.11 µg/mL (≈ 0.208 µM)
fCmax (Cavia porcellus [22]): 27.5 µM
Activity (Cavia porcellus [23]): Non-Toxic
Activity (Cavia porcellus [24]): Non-Toxic
MIC90 (Staphylococcus aureus [9]): 0.125 µg/mL (≈ 0.236 µM)
MIC90 (Streptococcus pyogenes): 0.25 to 0.5 µg/mL (≈ 0.473 to 0.946 µM)
fraction unbound [10]: 0.201
fraction unbound [11]: 0.197
fraction unbound [12]: 0.054
clearance [13]: 13.7 mL/min/kg
Vd [14]: 1.24 L/kg
half-life [15]: 63 min
clearance [16]: 30.9 mL/min/kg
Vd [17]: 1.82 L/kg
half-life [18]: 40.8 min
Activity (Staphylococcus aureus [19]): 79.7 to 82.8 mg/kg/day
Ratio [21]: 39

N#Cc1ccc2ccc(=O)n(CCN3CC[C@H](NCc4cc5c(cn4)OCCO5)[C@H](F)C3)c2c1
Ratio [21]: 36

COc1ccc2nccc([C@@H](O)CC[C@@H]3CCN(C4CC(c5c(F)cccc5F)C4)C[C@@H]3C(=O)O)c2c1 (stereo partly drawn)
IC50 [2]: 100 to 120 µM
IC50 [3]: 2.93 µM

COc1ccc2ncc(F)c([C@@H](O)CC[C@@H]3CCN(C4CC(c5ccno5)C4)C[C@@H]3C(=O)O)c2c1 (stereo partly drawn)
IC50 [8]: > 300 µM
MIC (Staphylococcus aureus [1]): > 64 µg/mL
IC50 [2]: 35.1 µM
IC50 [3]: 2.68 µM
MIC (Staphylococcus aureus [4]): 0.5 µg/mL (≈ 1.03 µM)
MIC (Staphylococcus aureus [5]): 4 µg/mL (≈ 8.27 µM)

COc1ccc2ncc(F)c([C@@H](O)CC[C@@H]3CCN(C4CC(c5c(F)cccc5F)C4)C[C@@H]3C(=O)O)c2c1 (stereo partly drawn)
MIC (Staphylococcus aureus [6]): 2.8 µg/mL (≈ 5.3 µM)
IC50 [8]: 45.3 µM
MIC (Staphylococcus aureus [1]): 3.2 µg/mL (≈ 6.05 µM)
IC50 [2]: 18.3 µM
IC50 [3]: 4.61 µM
MIC (Staphylococcus aureus [4]): ≤ 0.063 µg/mL
MIC (Staphylococcus aureus [5]): 0.079 µg/mL (≈ 0.149 µM)
MIC90 (Staphylococcus aureus [9]): 0.125 µg/mL (≈ 0.236 µM)
MIC90 (Streptococcus pyogenes): 0.5 µg/mL (≈ 0.946 µM)
